“Also recorded” adds a separate entry of the source. Where a name gives a salt, the structure may show the parent alone. Read-outs that look alike come from different tables or passages of the source.
Key:
[1] = dog, in vivo
Description: Each salt form was formulated into tablets with identical formulations. 9 dogs were divided into three group of 3 dogs/group. Each group received one of the following different pre-treatments: • 1. No pretreatment (natural gastric pH—could be acidic or alkaline) • 2. Famotidine (causes alkaline gastric pH) • 3. Pentagastrin (causes acidic gastric pH) The study used a crossover design. Each group of dogs first received pretreatment and was dosed with the Voruciclib HCl salt. After a washout period, the same group of dogs received the same pretreatment and was dosed with the Voruciclib malonate salt. The results were then analyzed for variability. […]
Clinical observations were recorded at least once daily, approximately 1 hour post-Voruciclib dose on dosing days. Body weight measurements were recorded for randomization, prior to dose administration (Day 1 and 8), and on the last day of the washout period following Phase 1 (Day 7). […]
Pharmacokinetic Analysis: Pharmacokinetic (PK) analyses were performed on the individual plasma concentration versus time data for Voruciclib using Phoenix WinNonlin non-compartmental analysis. To evaluate drug absorption, the PK parameter C max (maximum plasma concentration) was measured.
For each dog, the actual administered dose of voruciclib free base was calculated on a mg/kg basis, using the dog body weight data. […]

[2] = Quantitative solubility determination of voruciclib malonate after the thermocycling experiments (UPLC); assay type: physicochemical
Description: Moreover, after the thermocycling experiments, an aliquot of the mother liquor was taken and analyzed by UPLC to determine the API solubility. After that, the solutions were evaporated under vacuum (5 mbar) and the dry solids were analyzed by HT-XRPD. The solids were then exposed to accelerated aging conditions (2 days at 40° C./75% RH) followed by HT-XRPD re-analysis. Suspensions of amorphous voruciclib malonate salt were prepared in 24 solvents. After the temperature profile, an aliquot of mother liquor was taken, filtered and analyzed by UPLC to determine the API solubility. A small aliquot of mother liquor was taken and filtered using 0.2 μM PTFE syringe filters. The concentration of solute was determined by UPLC analysis. After that, the solutions were evaporated under vacuum (5 mbar) and the dry solids were analyzed by HT-XRPD. The solids were then exposed to accelerated aging conditions (2 days at 40° C./75% RH) followed by HT-XRPD re-analysis.

[3] = Physical stability of solid forms upon drying under vacuum, HT-XRPD; assay type: physicochemical; settings: for Physical stability upon drying under deep/high vacuum: oxalate, phosphate, malonate forms, 5 mbar, 18 h
Description: (§1) Amorphous voruciclib oxalate salt, generated by freeze-drying, was used to start the thermocycling experiments. Suspensions were prepared in the selected solvent systems at RT. Subsequently, the mixtures were subjected to a temperature profile. After the temperature profile, the solids were separated from the solutions by centrifugation and were dried at ambient conditions and under deep vacuum before being harvested and analyzed by HT-XRPD. The liquid phases were also dried under deep vacuum before being harvested and analyzed by HT-XRPD. All solids were exposed to AAC (40° C./75% RH, 2 days).
(§2) After the temperature profile, the solids were separated from the liquids by centrifugation and the solid phase was dried at ambient conditions and under deep vacuum (5 mbar) before being harvested and analyzed by HT-XRPD. The liquid phases were dried under deep vacuum (5 mbar) and the recovered solids were analyzed by HT-XRPD. All solids were then exposed to accelerated aging conditions (40° C./75% RH, 2 days) followed by HT-XRPD re-analysis.
as §1, with “voruciclib phosphate” for “voruciclib oxalate”, “profile. Upon completion of” for “profile. After”, “dried under” for “dried at”
as §2, with “dried under” for “dried at”, “(5 mbar, 18 h)” for “(5 mbar)”
Amorphous voruciclib malonate salt, generated by freeze-drying, was used to start the thermocycling experiments. Suspensions were prepared in the selected solvent systems at RT and were subjected to three thermocycles between 50 and 5° C., followed by aging at 25° C. for 3 days. Upon completion of the aging time, the solids were separated from the liquids by centrifugation and they were dried at ambient conditions and under deep vacuum (5 mbar) before being harvested and analyzed by HT-XRPD.
After the temperature profile the solids were separated from the solution by centrifugation and they were dried at ambient conditions and under deep vacuum before being harvested and analyzed by HT-XRPD.

CN1CC[C@H](c2c(O)cc(O)c3c(=O)cc(-c4ccc(C(F)(F)F)cc4Cl)oc23)[C@H]1CO (stereo in doubt) [voruciclib malonate, 2-(2-chloro-4-(trifluoromethyl)phenyl)-5,7-dihydroxy-8-((2S,3R)-2-(hydroxymethyl)-1-methylpyrrolidin-3-yl)-4H-chromen-4-one malonate salt]
Variability of absorption [1]: lower than the hydrochloride salt
solubility ([2]; 1,2-dimethoxyethane, organic solvent or mixture, thermodynamic from solid, 1,2-Dimethoxyethane, read-out: Solubility): 2.3 mg/mL
solubility ([2]; 1,4-dioxane, organic solvent or mixture, thermodynamic from solid, 1,4-Dioxane, read-out: Solubility): 0.9 mg/mL
solubility ([2]; 2-propanol, organic solvent or mixture, thermodynamic from solid, 2-Propanol, read-out: Solubility): 5.1 mg/mL
solubility ([2]; 2-propanol/water (90/10), organic solvent or mixture, thermodynamic from solid, 2-Propanol/water (90/10), read-out: Solubility): 130 mg/mL
solubility ([2]; IPA, acetone, AcN, MEK and 1,2-dimethoxyethane, organic solvent or mixture, thermodynamic from solid, IPA, acetone, AcN, MEK and 1,2-dimethoxyethane, read-out: Solubility classification): 1 to 10 mg/mL
solubility ([2]; THF, water and EtOH, water, thermodynamic from solid, THF, water and EtOH, read-out: Solubility classification): 10 to 33 mg/mL
solubility ([2]; acetone, organic solvent or mixture, thermodynamic from solid, Acetone, read-out: Solubility): 5 mg/mL
solubility ([2]; acetone/water (90/10), organic solvent or mixture, thermodynamic from solid, Acetone/water (90/10), read-out: Solubility): 245 mg/mL
solubility ([2]; acetone/water (90/10, v/v) and IPA/water (90/10, v/v), organic solvent or mixture, thermodynamic from solid, acetone/water (90/10, v/v) and IPA/water (90/10, v/v), read-out: Solubility classification): 100 to 1000 mg/mL
solubility ([2]; acetonitrile, organic solvent or mixture, thermodynamic from solid, Acetonitrile, read-out: Solubility): 3 mg/mL
solubility ([2]; anisole, organic solvent or mixture, thermodynamic from solid, Anisole, read-out: Solubility): < 0.04 mg/mL
solubility ([2]; chloroform, organic solvent or mixture, thermodynamic from solid, Chloroform, read-out: Solubility): 0.5 mg/mL
solubility ([2]; cyclohexane, organic solvent or mixture, thermodynamic from solid, Cyclohexane, read-out: Solubility): < 0.07 mg/mL
solubility ([2]; dichloromethane, organic solvent or mixture, thermodynamic from solid, Dichloromethane, read-out: Solubility): 0.3 mg/mL
solubility ([2]; diethyl ether, organic solvent or mixture, thermodynamic from solid, Diethyl ether, read-out: Solubility): < 0.04 mg/mL
solubility ([2]; ethanol, organic solvent or mixture, thermodynamic from solid, Ethanol, read-out: Solubility): 13.6 mg/mL
solubility ([2]; ethyl acetate, organic solvent or mixture, thermodynamic from solid, Ethyl acetate, read-out: Solubility): 0.3 mg/mL
solubility ([2]; ethyl formate, organic solvent or mixture, thermodynamic from solid, Ethyl formate, read-out: Solubility): 0.4 mg/mL
solubility ([2]; isopropyl acetate, organic solvent or mixture, thermodynamic from solid, Isopropyl acetate, read-out: Solubility): 0.1 mg/mL
solubility ([2]; methanol, organic solvent or mixture, thermodynamic from solid, Methanol, read-out: Solubility): 65.7 mg/mL
solubility ([2]; methanol, organic solvent or mixture, thermodynamic from solid, methanol, read-out: Solubility classification): 33 to 100 mg/mL
solubility ([2]; methyl ethyl ketone, organic solvent or mixture, thermodynamic from solid, Methyl ethyl ketone, read-out: Solubility): 2.9 mg/mL
solubility ([2]; n-heptane, organic solvent or mixture, thermodynamic from solid, n-Heptane, read-out: Solubility): < 0.06 mg/mL
solubility ([2]; organic solvent or mixture, thermodynamic from solid, 1,4-dioxane, chloroform, ethyl formate, DCM, ethyl acetate and isopropyl acetate, read-out: Solubility classification): 0.1 to 1 mg/mL
solubility ([2]; organic solvent or mixture, thermodynamic from solid, toluene, anisole, MTBE, diethyl ether, pentane, cyclohexane and n-heptane, read-out: Solubility classification): < 0.1 mg/mL
solubility ([2]; pentane, organic solvent or mixture, thermodynamic from solid, Pentane, read-out: Solubility): < 0.05 mg/mL
solubility ([2]; tert-butyl methyl ether, organic solvent or mixture, thermodynamic from solid, tert-Butyl methyl ether, read-out: Solubility): < 0.04 mg/mL
solubility ([2]; tetrahydrofuran, organic solvent or mixture, thermodynamic from solid, Tetrahydrofuran, read-out: Solubility): 14.2 mg/mL
solubility ([2]; toluene, organic solvent or mixture, thermodynamic from solid, Toluene, read-out: Solubility): < 0.04 mg/mL
solubility ([2]; water, thermodynamic from solid, Water, read-out: Solubility): 13.6 mg/mL

CN1CC[C@@H](c2c(O)cc(O)c3c(=O)cc(-c4ccc(C(F)(F)F)cc4Cl)oc23)[C@@H]1CO.O=C(O)CC(=O)O [Mao1]
Physical stability upon drying under deep/high vacuum [3]: physically stable

CN1CCC(c2c(O)cc(O)c3c(=O)cc(-c4ccc(C(F)(F)F)cc4Cl)oc23)C1CO.O=P(O)(O)O (centres unmarked) [Pho1]
Physical stability upon drying under deep/high vacuum [3]: physically stable; also recorded: remained stable
Vacuum ([3]; phosphate salt cooling crystallization, form after drying under deep vacuum (5 mbar), label = ambient-dried form): Pho1
Solid forms Vacuum ([3]; phosphate salt thermocycling solids, form after drying under deep vacuum (5 mbar, 18 h), HT-XRPD, label = ambient-dried form): Pho1

— patent US12421216B2, “Voruciclib polymorphs and methods of making and using thereof” (MEI PHARMA, INC., priority 2019, dated 2025)
